Results: patent US7022733B2, “Substituted 2-phenyl benzofurans as estrogenic agents” (Wyeth, priority 2001, dated 2006)
Where a name gives a salt, the structure may show the parent alone.

Row | melting point | Structure (SMILES)
1 | 152 to 154 °C | Oc1ccc(-c2cc3cc(F)cc(F)c3o2)cc1 [Example 94, 4-(5,7-Difluoro-benzofuran-2-yl)-phenol]
2 | 218 to 222 °C | Oc1ccc2oc(-c3ccc(O)c(F)c3)cc2c1 [Example 126, 2-(3-Fluoro-4-hydroxy-phenyl)-benzofuran-5-ol]
3 | 165 to 171.68 °C | COc1c(O)ccc2oc(-c3ccc(O)cc3)cc12 [Example 132, 2-(4-Hydroxy-phenyl)-4-methoxy-benzofuran-5-ol]
4 | 186 to 187 °C | Oc1ccc2oc(-c3cc(OCc4ccccc4)c(O)cc3-c3ccccc3)cc2c1 [Example 104, 2-(4-Benzyloxy-5-hydroxy-biphenyl-2-yl)-benzofuran-5-ol]
5 | 217 °C | CC(=NO)c1c(-c2ccc(O)cc2)oc2ccc(O)cc12 [Example 111, 1-[5-Hydroxy-2-(4-hydroxy-phenyl)-benzofuran-3-yl]-ethanone oxime]
6 | 251 to 254 °C | Nc1cc(O)cc2cc(-c3ccc(O)cc3)oc12 [Example 100, 7-Amino-2-(4-hydroxy-phenyl)-benzofuran-5-ol]
7 | 203 to 205 °C | Oc1ccc(-c2cc3cc(Br)cc(Br)c3o2)cc1 [Example 95, 4-(5,7-Dibromo-benzofuran-2-yl)-phenol]
8 | 195 °C | Oc1ccc(-c2cc3cc(O)ccc3o2)c(Br)c1 [Example 102, 2-(2-Bromo-4-hydroxy-phenyl)-benzofuran-5-ol]
9 | > 230 °C | N#Cc1c(O)ccc2oc(-c3ccc(O)cc3)cc12 [Example 135, 5-Hydroxy-2-(4-hydroxy-phenyl)-benzofuran-4-carbonitrile]
10 | 248 to 250 °C | OCc1ccc2oc(-c3ccc(O)cc3)cc2c1 [Example 144, 4-(5-Hydroxymethyl-benzofuran-2-yl)-phenol]
11 | 260 to 266 °C | Oc1ccc(-c2cc3cc(O)cc(-c4nnco4)c3o2)cc1 [Example 138, 2-(4-Hydroxy-phenyl)7-[1,3,4]oxadiazol-2-yl-benzofuran-5-ol]
12 | 125 to 127 °C | CON(C)C(=O)c1cc(O)cc2cc(-c3ccc(O)cc3)oc12 [Example 119, 5-Hydroxy-2-(4-hydroxy-phenyl)-benzofuran-7-carboxylic acid methoxy-methyl-amide]
13 | 210 to 213 °C | Oc1ccc(-c2cc3cc(O)cc(CC(F)(F)F)c3o2)cc1 [Example 141, 2-(4-Hydroxy-phenyl)-7-(2,2,2-trifluoro-ethyl)-benzofuran-5-ol]
14 | 210 to 214 °C | Oc1ccc(-c2cc3c(Cl)c(O)ccc3o2)cc1 [Example 131, 4-Chloro-2-(4-hydroxy-phenyl)-benzofuran-5-ol]
15 | 196 to 198 °C | Oc1ccc(-c2cc3c(Br)c(O)ccc3o2)cc1 [Example 130, 4-Bromo-2-(4-hydroxy-phenyl)-benzofuran-5-ol]
16 | > 300 °C | O=C(O)c1ccc2oc(-c3ccc(O)cc3)cc2c1 [Example 143, 2-(4-Hydroxy-phenyl)-benzofuran-5-carboxylic acid]
17 | 243 to 251 °C | CC(=O)c1c(-c2ccc(O)cc2)oc2ccc(O)cc12 [Example 110, 1-[5-Hydroxy-2-(4-hydroxy-phenyl)-benzofuran-3-yl]-ethanone]
18 | 192 to 194 °C | CC(C)c1cc(O)cc2cc(-c3ccc(O)cc3)oc12 [Example 118, 2-(4-Hydroxy-phenyl)-7-isopropyl-benzofuran-5-ol]
19 | 177 to 182 °C | CC(O)c1c(-c2ccc(O)cc2)oc2ccc(O)cc12 (stereo not drawn) [Example 113, 3-(1-Hydroxy-ethyl)-2-(4-hydroxy-phenyl)-benzofuran-5-ol]
20 | 238 to 239 °C | Oc1ccc(-c2cc(O)ccc2-c2cc3cc(O)ccc3o2)cc1 [Example 105, 6-(5-Hydroxy-benzofuran-2-yl)-biphenyl-3,4′-diol]
21 | 172 to 174 °C | CC(C)(C)c1ccc2oc(-c3ccc(O)cc3)cc2c1 [Example 92, 4-(5-tert-Butyl-benzofuran-2-yl)-phenol]

More lines, now with the values behind:

Row | Structure (SMILES) | melting point
22 | N#CSCc1cc(O)cc2cc(-c3ccc(O)cc3)oc12 [Example 15, 2-(4-Hydroxy-phenyl)-7-thiocyanatomethyl-benzofuran-5-ol] | 190 to 192 °C
23 | Oc1ccc(-c2cc3cc(O)cc(Cn4ccnc4)c3o2)cc1 [Example 16, 2-(4-Hydroxy-phenyl)-7-imidazol-1-ylmethyl-benzofuran-5-ol] | 269 to 271 °C
24 | OCc1cc(O)cc2cc(-c3ccc(O)cc3)oc12 [Example 25, 7-Hydroxymethyl-2-(4-hydroxy-phenyl)-benzofuran-5-ol] | 258 to 260 °C
25 | C=Cc1cc(O)cc2cc(-c3ccc(O)cc3)oc12 [Example 67, 2-(4-Hydroxy-phenyl)-7-vinyl-benzofuran-5-ol] | 182 to 184 °C
26 | Cc1cc(O)ccc1-c1cc2cc(O)ccc2o1 [Example 80, 2-(4-Hydroxy-2-methyl-phenyl)-benzofuran-5-ol] | 167 to 169 °C
27 | O=C(O)c1cc(O)cc2cc(-c3ccc(O)cc3)oc12 [Example 24, 5-Hydroxy-2-(4-hydroxy-phenyl)-benzofuran-7-carboxylic acid] | 260 to 262 °C
28 | NC(=O)C=Cc1cc(O)cc2cc(-c3ccc(O)cc3)oc12 [Example 61, 3-[5-Hydroxy-2-(4-hydroxyphenyl)-benzofuran-7-yl]-acrylamide] | 275 °C (dec.)
29 | Oc1ccc(-c2cc3c(Br)c(O)cc(Br)c3o2)cc1 [Example 63, 4,7-Dibromo-2-(4-hydroxy-phenyl)-benzofuran-5-ol] | 215 to 217 °C
30 | COC(=O)C=Cc1cc(O)cc2cc(-c3ccc(O)cc3)oc12 [Example 59, 3-[5-Hydroxy-2-(4-hydroxy-phenyl)benzofuran-7-yl]-acrylic acid methyl ester] | 231 to 234 °C
31 | COC(=O)c1cc(O)cc2cc(-c3ccc(O)cc3)oc12 [Example 38, 5-Hydroxy-2-(4-hydroxy-phenyl)-benzofuran-7-carboxylic acid methyl ester] | 236 to 238 °C
32 | Oc1ccc(-c2cc3cc(O)cc(CSc4ccccc4)c3o2)cc1 [Example 12, 2-(4-Hydroxy-phenyl)-7-phenylsulfanylmethyl-benzofuran-5-ol] | 175 to 177 °C
33 | CCCOC(=O)c1cc(O)cc2cc(-c3ccc(O)cc3)oc12 [Example 37, 5-Hydroxy-2-(4-hydroxy-phenyl)-benzofuran-7-carboxylic acid propyl ester] | 220 to 222 °C
34 | CC(C)(C#N)c1cc(O)cc2cc(-c3ccc(O)cc3)oc12 [Example 22, 2-[5-Hydroxy-2-(4-hydroxy-phenyl)-benzofuran-7-yl]-2-methyl-propionitrile] | 284 °C
35 | COCc1cc(O)cc2cc(-c3ccc(O)cc3)oc12 [Example 6, 2-(4-Hydroxy-phenyl)-7-methoxymethyl-benzofuran-5-ol] | 186 to 188 °C
36 | CCOCc1cc(O)cc2cc(-c3ccc(O)cc3)oc12 [Example 7, 7-Ethoxymethyl-2-(4-hydroxy-phenyl)-benzofuran-5-ol] | 166 to 168 °C
37 | CC(C#N)c1cc(O)cc2cc(-c3ccc(O)cc3)oc12 (stereo not drawn) [Example 21, 2-[5-Hydroxy-2-(4-hydroxy-phenyl)-benzofuran-7-yl]-propionitrile] | 183 to 185 °C
38 | CC(C)OCc1cc(O)cc2cc(-c3ccc(O)cc3)oc12 [Example 8, 2-(4-Hydroxy-phenyl)-7-isopropoxymethyl benzofuran-5-ol] | 195 to 197 °C
39 | COc1cc(O)c(C#N)c2cc(-c3ccc(O)c(F)c3)oc12 [Example 73a, 2-(3-Fluoro-4-hydroxy-phenyl)-5-hydroxy 7-methoxy-benzofuran-4-carbonitrile] | 265 to 267 °C
40 | Oc1ccc(-c2cc3cc(F)ccc3o2)cc1 [Example 91, 4-(5-Fluoro-benzofuran-2-yl)-phenol] | 202 to 204 °C
41 | COc1ccc(-c2cc3cc(OC)cc(CO)c3o2)cc1 [Example 3, [5-Methoxy-2-(4-methoxy-phenyl)-benzofuran-7-yl]-methanol] | 128 to 130 °C
42 | CCc1cc(O)cc2cc(-c3ccc(O)cc3)oc12 [Example 30, 7-Ethyl-2-(4-hydroxy-phenyl)-benzofuran-5-ol] | 218 to 220 °C
43 | COc1cc(O)c(C=NO)c2cc(-c3ccc(O)cc3)oc12 [Example 72, 5-Hydroxy-2-(4-hydroxy-phenyl)-7-methoxy-benzofuran-4-carbaldehyde oxime] | 205 °C (dec.)
44 | CCCc1cc(O)cc2cc(-c3ccc(O)cc3)oc12 (as salt: HCl) [Example 35, 2-(4-Hydroxy-phenyl)-7-propyl-benzofuran-5-ol] | 178 to 180 °C
45 | CSCc1cc(O)cc2cc(-c3ccc(O)cc3)oc12 [Example 10, 2-(4-Hydroxy-phenyl)-7-methylsulfanylmethyl-benzofuran-5-ol] | 188 to 190 °C
46 | CC(C)OC(=O)c1cc(O)cc2cc(-c3ccc(O)cc3)oc12 [Example 36, 5-Hydroxy-2(4hydroxy-phenyl)-benzofuran-7-carboxylic acid Isopropyl ester] | > 250 °C
47 | CCOC(=O)c1cc(O)cc2cc(-c3ccc(O)cc3)oc12 [Example 39, 5-Hydroxy-2-(4-hydroxy-phenyl)-benzofuran-7-carboxylic acid ethyl ester] | 221 to 223 °C
48 | O=C(c1cc(O)cc2cc(-c3ccc(O)cc3)oc12)C(F)(F)F [Example 68, 2,2,2-Trifluoro-1-[5-hydroxy-2-(4-hydroxy-phenyl)-benzofuran-7-yl]-ethanone] | 215 to 216 °C
49 | Oc1ccc(-c2cc3cc(O)cc(CBr)c3o2)cc1 [Example 4, 7-Bromomethyl-2-(4-hydroxy-phenyl)-benzofuran-5-ol] | 337 to 339 °C
50 | COC(=O)CCc1cc(O)cc2cc(-c3ccc(O)cc3)oc12 [Example 60, 3-[5-Hydroxy-2-(4-hydroxy-phenyl)-benzofuran-7-yl]-propionic acid methyl ester] | 167 to 170 °C
51 | CCSCc1cc(O)cc2cc(-c3ccc(O)cc3)oc12 [Example 11, 7-Ethylsulfanylmethyl-2-(4-hydroxy-phenyl)-benzofuran-5-ol] | 181 to 183 °C
